From PubChem BioAssay (NCI)
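Five compound concentrations were applied to cells in 96-well plates for 48 hours; endpoints were derived by simple linear interpolation of the resulting dose-response curve. GI50 = concentration required for 50% inhibition of growth. The concentration for full growth arrest is given as TGI.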

Legend:
Test in all cases: NCI anticancer screen, dose series, 48 h; in the data active = GI50 below about 0.43 µM; inactive = the rest
786-0 renal = test system: 786-0 renal
A549 NSCLC = test system: A549 NSCLC
ACHN renal = test system: ACHN renal
BT-549 breast = test system: BT-549 breast
CAKI-1 renal = test system: CAKI-1 renal
CCRF-CEM leukemia = test system: CCRF-CEM leukemia
COLO 205 colon = test system: COLO 205 colon
DU-145 prostate = test system: DU-145 prostate
HCC-2998 colon = test system: HCC-2998 colon
HCT-116 colon = test system: HCT-116 colon
HCT-15 colon = test system: HCT-15 colon
HL-60(TB) leukemia = test system: HL-60(TB) leukemia
HOP-62 NSCLC = test system: HOP-62 NSCLC
HOP-92 NSCLC = test system: HOP-92 NSCLC
HS 578T breast = test system: HS 578T breast
HT29 colon = test system: HT29 colon
IGROV1 ovarian = test system: IGROV1 ovarian
K-562 leukemia = test system: K-562 leukemia
KM12 colon = test system: KM12 colon
LOX IMVI melanoma = test system: LOX IMVI melanoma
M14 melanoma = test system: M14 melanoma
MCF7 breast = test system: MCF7 breast
MDA-MB-231 breast = test system: MDA-MB-231 breast
MDA-MB-435 = test system: MDA-MB-435
MOLT-4 leukemia = test system: MOLT-4 leukemia
NCI-H226 lung = test system: NCI-H226 lung
NCI-H23 lung = test system: NCI-H23 lung
NCI-H460 lung = test system: NCI-H460 lung
NCI-H522 lung = test system: NCI-H522 lung
NCI/ADR-RES ovarian = test system: NCI/ADR-RES ovarian
OVCAR-3 ovarian = test system: OVCAR-3 ovarian
OVCAR-4 ovarian = test system: OVCAR-4 ovarian
OVCAR-5 ovarian = test system: OVCAR-5 ovarian
OVCAR-8 ovarian = test system: OVCAR-8 ovarian
PC-3 prostate = test system: PC-3 prostate
RPMI-8226 leukemia = test system: RPMI-8226 leukemia
RXF 393 renal = test system: RXF 393 renal
SF-268 CNS = test system: SF-268 CNS
SF-295 CNS = test system: SF-295 CNS
SF-539 CNS = test system: SF-539 CNS
SK-MEL-2 melanoma = test system: SK-MEL-2 melanoma
SK-MEL-28 melanoma = test system: SK-MEL-28 melanoma
SK-MEL-5 melanoma = test system: SK-MEL-5 melanoma
SK-OV-3 ovarian = test system: SK-OV-3 ovarian
SN12C renal = test system: SN12C renal
SNB-19 CNS = test system: SNB-19 CNS
SNB-75 CNS = test system: SNB-75 CNS
SR leukemia = test system: SR leukemia
SW-620 colon = test system: SW-620 colon
T-47D breast = test system: T-47D breast
TK-10 renal = test system: TK-10 renal
U251 CNS = test system: U251 CNS
UACC-257 melanoma = test system: UACC-257 melanoma
UACC-62 melanoma = test system: UACC-62 melanoma
UO-31 renal = test system: UO-31 renal

CC(C)N(CCCNC(=O)Nc1ccc(C(C)(C)C)cc1)C[C@H]1O[C@@H](n2ccc3c(N)ncnc32)[C@H](O)[C@@H]1O
> 100 µM: TGI (786-0 renal) | TGI (A549 NSCLC) | TGI (ACHN renal) | TGI (BT-549 breast) | TGI (CAKI-1 renal) | TGI (CCRF-CEM leukemia) | TGI (COLO 205 colon) | TGI (DU-145 prostate) | TGI (HCC-2998 colon) | TGI (HCT-116 colon) | TGI (HCT-15 colon) | TGI (HL-60(TB) leukemia) | TGI (HOP-62 NSCLC) | TGI (HOP-92 NSCLC) | TGI (HS 578T breast) | TGI (HT29 colon) | TGI (IGROV1 ovarian) | TGI (K-562 leukemia) | TGI (KM12 colon) | TGI (LOX IMVI melanoma) | TGI (M14 melanoma) | TGI (MCF7 breast) | TGI (MDA-MB-231 breast) | TGI (MDA-MB-435) | TGI (MOLT-4 leukemia) | TGI (NCI-H226 lung) | TGI (NCI-H23 lung) | TGI (NCI-H460 lung) | TGI (NCI-H522 lung) | TGI (NCI/ADR-RES ovarian) | TGI (OVCAR-3 ovarian) | TGI (OVCAR-4 ovarian) | TGI (OVCAR-5 ovarian) | TGI (OVCAR-8 ovarian) | TGI (PC-3 prostate) | TGI (RPMI-8226 leukemia) | TGI (RXF 393 renal) | TGI (SF-268 CNS) | TGI (SF-295 CNS) | TGI (SF-539 CNS) | TGI (SK-MEL-2 melanoma) | TGI (SK-MEL-28 melanoma) | TGI (SK-MEL-5 melanoma) | TGI (SK-OV-3 ovarian) | TGI (SN12C renal) | TGI (SNB-19 CNS) | TGI (SNB-75 CNS) | TGI (SR leukemia) | TGI (SW-620 colon) | TGI (T-47D breast) | TGI (TK-10 renal) | TGI (U251 CNS) | TGI (UACC-257 melanoma) | TGI (UACC-62 melanoma) | TGI (UO-31 renal)
inactive: GI50 (786-0 renal) > 100 µM | GI50 (A549 NSCLC) > 100 µM | GI50 (ACHN renal) > 100 µM | GI50 (BT-549 breast) > 100 µM | GI50 (CAKI-1 renal) > 100 µM | GI50 (CCRF-CEM leukemia) > 100 µM | GI50 (COLO 205 colon) > 100 µM | GI50 (DU-145 prostate) > 100 µM | GI50 (HCC-2998 colon) > 100 µM | GI50 (HCT-116 colon) > 100 µM | GI50 (HCT-15 colon) > 100 µM | GI50 (HL-60(TB) leukemia) > 100 µM | GI50 (HOP-62 NSCLC) > 100 µM | GI50 (HOP-92 NSCLC) > 100 µM | GI50 (HS 578T breast) > 100 µM | GI50 (HT29 colon) > 100 µM | GI50 (IGROV1 ovarian) > 100 µM | GI50 (K-562 leukemia) > 100 µM | GI50 (KM12 colon) > 100 µM | GI50 (LOX IMVI melanoma) > 100 µM | GI50 (M14 melanoma) > 100 µM | GI50 (MCF7 breast) > 100 µM | GI50 (MDA-MB-231 breast) > 100 µM | GI50 (MDA-MB-435) > 100 µM | GI50 (MOLT-4 leukemia) > 100 µM | GI50 (NCI-H226 lung) > 100 µM | GI50 (NCI-H23 lung) > 100 µM | GI50 (NCI-H460 lung) > 100 µM | GI50 (NCI-H522 lung) > 100 µM | GI50 (NCI/ADR-RES ovarian) > 100 µM | GI50 (OVCAR-3 ovarian) > 100 µM | GI50 (OVCAR-4 ovarian) > 100 µM | GI50 (OVCAR-5 ovarian) > 100 µM | GI50 (OVCAR-8 ovarian) > 100 µM | GI50 (PC-3 prostate) > 100 µM | GI50 (RPMI-8226 leukemia) > 100 µM | GI50 (RXF 393 renal) > 100 µM | GI50 (SF-268 CNS) > 100 µM | GI50 (SF-295 CNS) > 100 µM | GI50 (SF-539 CNS) > 100 µM | GI50 (SK-MEL-2 melanoma) > 100 µM | GI50 (SK-MEL-28 melanoma) > 100 µM | GI50 (SK-MEL-5 melanoma) > 100 µM | GI50 (SK-OV-3 ovarian) > 100 µM | GI50 (SN12C renal) > 100 µM | GI50 (SNB-19 CNS) > 100 µM | GI50 (SNB-75 CNS) 26.2 µM | GI50 (SR leukemia) > 100 µM | GI50 (SW-620 colon) > 100 µM | GI50 (T-47D breast) > 100 µM | GI50 (TK-10 renal) > 100 µM | GI50 (U251 CNS) > 100 µM | GI50 (UACC-257 melanoma) > 100 µM | GI50 (UACC-62 melanoma) > 100 µM | GI50 (UO-31 renal) > 100 µM
